In this test the target is T1, Human TRPC6 (Homo sapiens, UniProt Q9Y210).
T1 construct: expressed in transfected cells
T1 sequence (Q9Y210 1-931): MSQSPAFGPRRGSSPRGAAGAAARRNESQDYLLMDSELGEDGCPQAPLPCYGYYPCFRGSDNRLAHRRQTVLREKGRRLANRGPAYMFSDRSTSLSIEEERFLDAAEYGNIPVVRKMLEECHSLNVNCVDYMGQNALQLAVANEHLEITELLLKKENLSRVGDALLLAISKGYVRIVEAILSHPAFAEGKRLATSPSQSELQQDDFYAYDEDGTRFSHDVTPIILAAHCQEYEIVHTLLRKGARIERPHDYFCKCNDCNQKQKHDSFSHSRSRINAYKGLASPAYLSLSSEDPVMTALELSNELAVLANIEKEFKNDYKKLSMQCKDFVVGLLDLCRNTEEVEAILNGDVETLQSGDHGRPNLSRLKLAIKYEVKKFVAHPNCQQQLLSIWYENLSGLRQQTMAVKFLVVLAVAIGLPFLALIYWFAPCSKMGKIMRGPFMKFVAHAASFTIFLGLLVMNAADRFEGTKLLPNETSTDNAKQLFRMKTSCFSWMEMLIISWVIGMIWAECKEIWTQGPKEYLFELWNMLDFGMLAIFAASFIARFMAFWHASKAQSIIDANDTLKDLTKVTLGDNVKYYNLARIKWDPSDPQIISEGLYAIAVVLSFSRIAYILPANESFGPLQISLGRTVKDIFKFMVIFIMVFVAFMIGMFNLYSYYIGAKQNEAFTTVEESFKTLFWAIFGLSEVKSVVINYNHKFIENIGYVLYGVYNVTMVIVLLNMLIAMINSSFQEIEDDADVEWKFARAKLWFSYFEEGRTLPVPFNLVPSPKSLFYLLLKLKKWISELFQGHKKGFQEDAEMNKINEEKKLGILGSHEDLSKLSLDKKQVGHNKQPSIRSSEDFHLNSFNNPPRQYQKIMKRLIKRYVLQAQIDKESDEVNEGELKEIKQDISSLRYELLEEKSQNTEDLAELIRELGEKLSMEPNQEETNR
The experiment in a line: Evaluation of TRPC6 channel inhibitory activity (1), FLIPR Calcium 5 Assay Kit, OAG stimulation (Compound Nos. 1-1293). The note with it: Human TRPC6 stably-expressing cells, OAG 30 μM, FLIPR Calcium 5 Assay Kit; read-out: Inhibitory activity (pIC50 class) (converted). Type of test: cell-based. In a few lines: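 Stable human TRPC6 line; fluorescent Ca2+ dye loading, then 20 min compound exposure before 30 μM OAG trigger. Peak-minus-baseline signal converted to % inhibition against untreated and unstimulated wells; potency given as pIC50 band.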

Molecules are shown by their SMILES. Some results are limits rather than exact numbers.

For `Cn1nc(C(F)(F)F)cc1-c1cc(Oc2cc(C#N)ccc2-c2ccc(CCN)cc2)cnn1` [Compound 111, 4-[4-(2-aminoethyl)phenyl]-3-[6-[2-methyl-5-(trifluoromethyl)pyrazol-3-yl]pyridazin-4-yl]oxybenzonitrile], the IC50 was 0.01 to 1 µM.
The figure for `Cc1nc(Oc2cc(C#N)ccc2-c2ccc(CCN)cc2)cc(N2CCC[C@H]2C#N)n1` [Compound 112, (2S)-1-[6-[2-[4-(2-aminoethyl)phenyl]-5-cyanophenoxy]-2-methylpyrimidin-4 yl]pyrrolidine-2-carbonitrile] is under 0.01 µM; for `N#Cc1ccc(-c2ccc(CCN)cc2)c(Oc2cc(N3CCOCC3)nc(C(F)(F)F)n2)c1` [Compound 113, 4-[4-(2-aminoethyl)phenyl]-3-[6-morpholin-4-yl-2-(trifluoromethyl)pyrimidin-4-yl]oxybenzonitrile] it is under 0.01 µM.
For `N#Cc1ccc(-c2ccc(CCN)cc2)c(Oc2cnnc(-c3ccccn3)c2)c1` [Compound 114, 4-[4-(2-aminoethyl)phenyl]-3-(6-pyridin-2-ylpyridazin-4-yl)oxybenzonitrile], the IC50 was 0.01 to 1 µM.
Turning to `Cn1nc(-c2ccccc2)cc1Oc1cc(C#N)ccc1-c1ccc(CCN)cc1` [Compound 115, 4-[4-(2-aminoethyl)phenyl]-3-(2-methyl-5-phenylpyrazol-3-yl)oxybenzonitrile], the IC50 was under 0.01 µM.
The figure for `N#Cc1ccc(-c2ccc(CCN)cc2)c(Oc2cnnc(-c3ccccc3F)c2)c1` [Compound 116, 4-[4-(2-aminoethyl)phenyl]-3-[6-(2-fluorophenyl)pyridazin-4-yl]oxybenzonitrile] is 0.01 to 1 µM.
The same measure for `N#Cc1ccc(-c2ccc(CCN)cc2)c(Oc2cnnc(-c3ccccc3OC(F)(F)F)c2)c1` [Compound 117, 4-[4-(2-aminoethyl)phenyl]-3-[6-[2-(trifluoromethoxy)phenyl]pyridazin-4-yl]oxybenzonitrile]: 0.01 to 1 µM; for `COc1ccccc1-c1cc(Oc2cc(C#N)ccc2-c2ccc(CCN)cc2)cnn1` [Compound 118, 4-[4-(2-aminoethyl)phenyl]-3-[6-(2-methoxypheny)pyridazin-4-yl]oxybenzonitrile]: 0.01 to 1 µM; for `CC(=O)Nc1ccccc1-c1cc(Oc2cc(C#N)ccc2-c2ccc(CCN)cc2)cnn1` [Compound 119, N-[2-[5-[2-[4-(2-aminoethyl)phenyl]-5-cyanophenoxy]pyridazin-3-yl]phenyl]acetamide]: over 1 µM.
The figure for `COC(=O)c1ccccc1-c1cc(Oc2cc(C#N)ccc2-c2ccc(CCN)cc2)cnn1` [Compound 120, methyl 2-[5-[2-[4-(2-aminoethyl)phenyl]-5-cyanophenoxy]pyridazin-3-yl]benzoate] is under 0.01 µM; for `N#Cc1ccc(-c2ccc(CCN)cc2)c(Oc2cnnc(-c3ccccc3C(=O)O)c2)c1` [Compound 121, 2-[5-[2-[4-(2-aminoethyl)phenyl]-5-cyanophenoxy]pyridazin-3-yl]benzoic acid] it is over 1 µM; for `N#Cc1ccc(-c2ccc(C(CN)C(F)(F)F)cc2)c(Oc2cnnc(N3CCOCC3)c2)c1` (stereo not drawn) [Compound 122, 4-[4-(3-amino-1,1,1-trifluoropropan-2-yl)phenyl]-3-(6-morpholin-4-ylpyridazin-4-yl)oxybenzonitrile] it is 0.01 to 1 µM.
With `N#Cc1ccc(-c2ccc(CCN)cc2)c(Oc2cnnc(O[C@H]3CCC[C@H]3O)c2)c1` [Compound 123, 4-[4-(2-aminoethyl)phenyl]-3-[6-[(1S,2R)-2-hydroxycyclopentyl]oxypyridazin-4-yl]oxybenzonitrile], the IC50 is 0.01 to 1 µM.
The same measure for `N#Cc1ccc(-c2ccc(CCN)cc2)c(Oc2cnnc(O[C@H]3CCC[C@@H]3O)c2)c1` [Compound 124, 4-[4-(2-aminoethyl)phenyl]-3[6-[(1S,2S)-2-hydroxycyclopentyl]oxypyridazin-4-yl]oxybenzonitrile]: 0.01 to 1 µM; for `N#Cc1ccc(-c2ccc(CCN)cc2)c(Oc2cnnc(OC3CCOC3)c2)c1` (stereo not drawn) [Compound 125, 4-[4-(2-aminoethyl)phenyl]-3-[6-(oxolan-3-yloxy)pyridazin-4-yl]oxybenzonitrile]: 0.01 to 1 µM; for `CC(C)(C)CCOc1cc(Oc2cc(C#N)ccc2-c2ccc(CCN)cc2)cnn1` [Compound 126, 4-[4-(2-aminoethyl)phenyl]-3-[6-(3,3-dimethylbutoxy)pyridazin-4-yl]oxybenzonitrile]: over 1 µM.
The same measure for `CC(C)(C)OCCOc1cc(Oc2cc(C#N)ccc2-c2ccc(CCN)cc2)cnn1` [Compound 127, 4-[4-(2-aminoethyl)phenyl]-3-[6-[2-[(2-methylpropan-2-yl)oxy]ethoxy]pyridazin-4-yl]oxybenzonitrile]: over 1 µM; for `Cc1cc(N2CCOCC2)cc(Oc2cc(C#N)ccc2-c2ccc(CCN)cc2)n1` [Compound 128, 4-[4-(2-aminoethyl)phenyl]-3-(6-methyl-4-morpholin-4-ylpyridin-2-yl)oxybenzonitrile]: over 1 µM; for `Cc1nc(Oc2cc(C#N)ccc2-c2nc(C)c(C(O)CN)s2)cc(N2CCOCC2)n1` (stereo not drawn) [Compound 129, 4-[5-(2-amino-1-hydroxyethyl)-4-methyl-1,3-thiazol-2-yl]-3-(2-methyl-6-morpholin-4-ylpyrimidin-4-yl)oxybenzonitrile]: over 1 µM.
For the compound `Cc1nc(Oc2cc(C#N)ccc2-c2ccc(CCN)cc2)cc(N2CCC[C@@H]2C#N)n1` [Compound 130, (2R)-1-[6-[2-[4-(2-aminoethyl)phenyl]-5-cyanophenoxy]-2-methylpyrimidin-4-yl]pyrrolidine-2-carbonitrile], the IC50 is under 0.01 µM.
The same measure for `Cc1nc(Oc2cc(C#N)ccc2-c2ccc3c(c2)CC(N)C3=O)cc(N2CCOCC2)n1` (stereo not drawn) [Compound 131, 4-(2-Amino-1-oxo-2,3-dihydroinden-5-yl)-3-(2-methyl-6-morpholin-4-ylpyrimidin-4-yl)oxybenzonitrile]: over 1 µM; for `Cc1nc(Oc2cc(C#N)ccc2-c2ccc3c(c2)CCC3N)cc(N2CCOCC2)n1` (stereo not drawn) [Compound 132, 4-(1-amino-2,3-dihydro-1H-inden-5-yl)-3-(2-methyl-6-morpholin-4-ylpyrimidin-4-yl)oxybenzonitrile]: 0.01 to 1 µM; for `Cc1nc(Oc2cc(C#N)ccc2-c2ccc(C(CN)C(F)F)cc2)cc(N2CCOCC2)n1` (stereo not drawn) [Compound 133, 4-[4-(3-amino-1,1-difluoropropan-2-yl)phenyl]-3-(2-methyl-6-morpholin-4-ylpyrimidin-4-yl)oxybenzonitrile]: under 0.01 µM.
The same measure for `Cc1nc(Oc2cc(C#N)ccc2-c2ccc3c(c2)CC(N)C3O)cc(N2CCOCC2)n1` (stereo not drawn) [Compound 134, 4-(2-amino-1-hydroxy-2,3-dihydro-1H-inden-5-yl)-3-(2-methyl-6-morpholin-4-ylpyrimidin-4-yl)oxybenzonitrile]: 0.01 to 1 µM; for `N#Cc1ccc(-n2ccc(CN)n2)c(Oc2cnnc(-c3ccccc3)c2)c1` [Compound 135, 4-[3-(aminomethyl)pyrazol-1-yl]-3-(6-phenylpyridazin-4-yl)oxybenzonitrile]: over 1 µM.
The same measure for `Cc1nc(Oc2cc(C#N)ccc2-n2cc(C(O)CN)cn2)cc(N2CCOCC2)n1` (stereo not drawn) [Compound 136, 4-[4-(2-amino-1-hydroxyethyl)pyrazol-1-yl]-3-(2-methyl-6-morpholin-4-ylpyrimidin-4-yl)oxybenzonitrile]: 0.01 to 1 µM.
With `N#Cc1ccc(-c2ccc(CCN)cc2)c(Oc2cnnc(C3CCCC3)c2)c1` [Compound 137, 4-[4-(2-aminoethyl)phenyl]-3-(6-cyclopentylpyridazin-4-yl)oxybenzonitrile], the IC50 was under 0.01 µM.
The same measure for `Cc1cc(Oc2cc(C#N)ccc2-c2ccc(CCN)cc2)cc(N2CCOCC2)n1` [Compound 138, 4-[4-(2-aminoethyl)phenyl]-3-(2-methyl-6-morpholin-4-ylpyridin-4-yl)oxybenzonitrile]: under 0.01 µM; for `N#Cc1ccc(-c2ccc(C(CN)C(F)F)cc2)c(Oc2cnnc(N3CCOCC3)c2)c1` (stereo not drawn) [Compound 139, 4-[4-(3-amino-1,1-difluoropropan-2-yl)phenyl]-3-(6-morpholin-4 ylpyridazin-4-yl)oxybenzonitrile]: 0.01 to 1 µM.
The figure for `Cc1nc(Oc2cc(C#N)ccc2-n2cc(C(O)CN)cn2)cc(-c2ccc(F)cc2)n1` (stereo not drawn) [Compound 140, 4-[4-(2-amino-1-hydroxyethyl)pyrazol-1-yl]-3-[6-(4-fluorophenyl)-2-methylpyrimidin-4-yl]oxybenzonitrile] is 0.01 to 1 µM.

(Values after patent US20230167073A1 (Teijin Pharma Limited, priority 2020, published 2023).)
